Tests used:
[1] = tested on: Human cells of the umbilical vein; assay: NO generation from NO-donors with endothelial cells, chemiluminescence; type: cell-based; settings: incubation of 100 μM, 5 minutes
Description: (§1) The test relates to the nitric oxide generation from the NO-donors, for example nitroglycerin, niocorandil, nitroprussiate, etc., in the presence of endothelial cells (method a) or platelets (method b). • a) Endothelial Cells • Human cells of the umbilical vein, cultured on plates, having a 10^3 density cells/well were incubated for 5 minutes with scalar concentrations of NO-donor (1-100 μg/ml). The incubation medium (physiologic solution, for example Tyrode) was then analyzed to determine the capability to generate NO of the compound under test, by means of: • 1) nitric oxide detection by chemiluminescence; • 2) cGMP determination (cyclic GMP n° 2715 of the above mentioned Merck). • For the analysis by chemiluminescence, an amount equal to 100 μl was injected in the reaction chamber of a chemiluminescence analyzer containing glacial acetic acid and potassium iodide. The nitrites/nitrates present in the medium, under these conditions are converted into NO which is then detected after reaction with ozone, which produces light. In the equipments which measure the chemiluminescence, the luminescence produced is directly proportional to the generated NO levels and can be measured by a suitable photomultiplying unit of a chemiluminescence analyzer. The photomultiplier converts the incident light in electric voltage, which is quantitatively recorded. […]

Washed human platelets = assay: NO generation from NO-donors with platelets, chemiluminescence; type: cell-based; settings: incubation of 100 μM, 5 minutes
Description: as §1

O=C(NCCO[N+](=O)[O-])c1cccnc1 [nicorandil]
amount of NO generated [1]: about 10 μM
amount of NO generated (Washed human platelets): 35 µM

From patent US7812039B2, “Drugs for chronic pains” (Nicox S.A., priority 2001, dated 2010)
